Target: T1, MOR23 (Mus musculus, UniProt Q62007)
T1 construct: gene Or10j5; native full-length receptor in GFP-labelled olfactory sensory neurons of gene-targeted MOR23-IRES-tauEGFP mice, intact epithelium; untagged (IRES reporter)
T1 sequence (Q62007 1-309): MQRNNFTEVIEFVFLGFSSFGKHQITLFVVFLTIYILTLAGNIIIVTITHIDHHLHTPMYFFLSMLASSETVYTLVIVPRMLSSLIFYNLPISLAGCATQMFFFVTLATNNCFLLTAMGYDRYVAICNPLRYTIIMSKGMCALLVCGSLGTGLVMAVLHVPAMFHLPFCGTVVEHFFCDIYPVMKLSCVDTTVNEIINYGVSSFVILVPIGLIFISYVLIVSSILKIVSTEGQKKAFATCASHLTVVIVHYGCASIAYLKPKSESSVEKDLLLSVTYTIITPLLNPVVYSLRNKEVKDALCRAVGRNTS
Assay: perforated patch-clamp of dendritic knob, peak transduction current, Hill fit
Format: cell-based
Details: neurons of control-diet mice; holding -67 mV; Ringer pH 7.6; pressure-delivered odorant; whole-neuron transduction read-out; read-out: K1/2

Which EC50 does the source give for `CC(C)(O)CCCC1=CCC(C=O)CC1` (stereo not shown) [Lyral] here?
Its EC50 is 3 ± 1 µM.
